Measured values published in ChEMBL document CHEMBL3112421, “Small Macrocycles As Highly Active Integrin α2β1 Antagonists” (ACS Med Chem Lett, 2014).

Tests used:
Integrin alpha2/beta1 = Integrin alpha2/beta1 (Homo sapiens, UniProt P05556+P17301); assay: Antagonist activity at recombinant integrin alpha2 beta1 receptor (unknown origin) assessed as inhibition of interaction with biotinylated collagen type-1 after 3 hrs by solid phase ELISA-type assay; assay type: protein-complex assay
[1] = Permeability across human Caco2 cells; assay type: ADME, cell-based; settings: Caco-2, read-out: permeability
[2] = Drug metabolism in Swiss CD-1 mouse liver microsomes at 5 uM after 20 mins; assay type: ADME, Microsome; settings: read-out: Drug metabolism
[3] = Drug metabolism in human liver microsomes at 5 uM after 20 mins; assay type: ADME; settings: read-out: Drug metabolism
Cytochrome P450 1A2 = molecular target: T1, Cytochrome P450 1A2 (Homo sapiens, UniProt P05177); assay: Induction of CYP1A2 activity (unknown origin) relative to control; assay type: ADME
T1 sequence (P05177 whole entry): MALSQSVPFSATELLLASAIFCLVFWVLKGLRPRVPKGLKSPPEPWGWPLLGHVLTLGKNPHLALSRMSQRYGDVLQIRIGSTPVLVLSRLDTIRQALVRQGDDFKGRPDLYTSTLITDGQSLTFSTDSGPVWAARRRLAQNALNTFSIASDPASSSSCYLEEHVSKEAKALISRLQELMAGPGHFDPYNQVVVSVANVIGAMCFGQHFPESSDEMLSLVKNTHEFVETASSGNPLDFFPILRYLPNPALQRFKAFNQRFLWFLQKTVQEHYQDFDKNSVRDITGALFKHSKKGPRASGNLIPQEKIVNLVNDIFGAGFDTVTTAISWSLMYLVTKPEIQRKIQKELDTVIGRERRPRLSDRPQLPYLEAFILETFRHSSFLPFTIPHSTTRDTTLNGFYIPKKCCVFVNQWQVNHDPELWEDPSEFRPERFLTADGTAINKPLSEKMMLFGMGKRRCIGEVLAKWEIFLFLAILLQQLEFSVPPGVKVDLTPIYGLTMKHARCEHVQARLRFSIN

Cytochrome P450 3A4 [4] = molecular target: T2, Cytochrome P450 3A4 (Homo sapiens, UniProt P08684); assay: Inhibition of CYP3A4 (unknown origin) after 10 to 30 mins; assay type: ADME
T2 sequence (P08684 whole entry): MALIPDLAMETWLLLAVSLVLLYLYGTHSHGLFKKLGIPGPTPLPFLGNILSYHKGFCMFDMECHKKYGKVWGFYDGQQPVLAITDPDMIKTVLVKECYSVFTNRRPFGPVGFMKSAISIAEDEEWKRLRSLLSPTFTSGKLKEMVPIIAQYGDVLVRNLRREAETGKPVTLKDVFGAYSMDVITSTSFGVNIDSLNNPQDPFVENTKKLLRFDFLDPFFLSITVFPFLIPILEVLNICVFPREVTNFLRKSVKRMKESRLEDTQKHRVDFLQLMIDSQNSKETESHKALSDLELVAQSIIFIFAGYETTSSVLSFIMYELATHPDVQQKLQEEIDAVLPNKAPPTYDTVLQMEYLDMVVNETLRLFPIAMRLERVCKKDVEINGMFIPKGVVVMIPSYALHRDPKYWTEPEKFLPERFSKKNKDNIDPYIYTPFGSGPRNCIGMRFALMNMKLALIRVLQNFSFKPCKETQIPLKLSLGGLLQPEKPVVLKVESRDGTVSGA

Cytochrome P450 3A4 [5] = molecular target: T2, Cytochrome P450 3A4; assay: Induction of CYP3A4 activity (unknown origin) relative to control; assay type: ADME
[6] = molecular target: Voltage-gated inwardly rectifying potassium channel KCNH2 (Homo sapiens, UniProt Q12809); assay: Inhibition of human ERG expressed in CHO cells by patch clamp assay; assay type: cell-based
Sequence of Voltage-gated inwardly rectifying potassium channel KCNH2 (Q12809 whole entry): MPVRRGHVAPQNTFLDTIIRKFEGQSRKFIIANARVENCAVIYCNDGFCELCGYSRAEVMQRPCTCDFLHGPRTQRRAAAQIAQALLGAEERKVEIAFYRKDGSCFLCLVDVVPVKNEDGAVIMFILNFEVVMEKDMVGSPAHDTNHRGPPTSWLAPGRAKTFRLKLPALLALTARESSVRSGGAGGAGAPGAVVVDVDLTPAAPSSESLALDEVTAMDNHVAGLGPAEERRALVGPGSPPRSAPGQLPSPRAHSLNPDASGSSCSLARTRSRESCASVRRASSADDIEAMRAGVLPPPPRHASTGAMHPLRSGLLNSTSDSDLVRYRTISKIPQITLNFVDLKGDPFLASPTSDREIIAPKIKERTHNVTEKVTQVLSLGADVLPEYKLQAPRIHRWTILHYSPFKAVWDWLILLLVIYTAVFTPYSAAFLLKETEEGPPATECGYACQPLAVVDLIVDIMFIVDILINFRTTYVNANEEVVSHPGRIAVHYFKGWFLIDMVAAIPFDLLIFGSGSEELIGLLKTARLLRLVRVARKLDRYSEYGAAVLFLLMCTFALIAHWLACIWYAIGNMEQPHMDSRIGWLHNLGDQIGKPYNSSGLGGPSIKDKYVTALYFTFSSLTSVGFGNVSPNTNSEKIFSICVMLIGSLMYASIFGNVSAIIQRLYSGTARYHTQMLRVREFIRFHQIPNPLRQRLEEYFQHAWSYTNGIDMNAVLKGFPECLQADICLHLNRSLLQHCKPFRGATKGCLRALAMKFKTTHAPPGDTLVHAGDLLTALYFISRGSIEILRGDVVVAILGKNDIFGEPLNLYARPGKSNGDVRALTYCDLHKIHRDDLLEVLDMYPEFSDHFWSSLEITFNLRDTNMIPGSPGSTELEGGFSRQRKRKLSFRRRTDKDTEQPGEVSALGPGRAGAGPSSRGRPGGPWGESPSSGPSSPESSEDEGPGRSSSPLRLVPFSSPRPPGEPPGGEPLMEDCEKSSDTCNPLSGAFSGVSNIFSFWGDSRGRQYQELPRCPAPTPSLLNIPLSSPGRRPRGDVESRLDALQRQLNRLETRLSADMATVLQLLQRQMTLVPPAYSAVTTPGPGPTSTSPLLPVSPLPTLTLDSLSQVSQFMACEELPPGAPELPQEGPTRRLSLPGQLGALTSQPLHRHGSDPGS

[7] = Drug metabolism in Sprague-Dawley rat liver microsomes at 5 uM after 20 mins; assay type: ADME; settings: read-out: Drug metabolism
[8] = molecular target: Integrin alpha1/beta1 complex (Homo sapiens, UniProt P05556+P56199); assay: Antagonist activity at integrin alpha1beta1 receptor (unknown origin) assessed as inhibition of interaction with biotinylated collagen type-1 after 3 hrs by solid phase ELISA-type assay; assay type: protein-complex assay
Sequence of Integrin alpha1/beta1 complex (P05556 whole entry): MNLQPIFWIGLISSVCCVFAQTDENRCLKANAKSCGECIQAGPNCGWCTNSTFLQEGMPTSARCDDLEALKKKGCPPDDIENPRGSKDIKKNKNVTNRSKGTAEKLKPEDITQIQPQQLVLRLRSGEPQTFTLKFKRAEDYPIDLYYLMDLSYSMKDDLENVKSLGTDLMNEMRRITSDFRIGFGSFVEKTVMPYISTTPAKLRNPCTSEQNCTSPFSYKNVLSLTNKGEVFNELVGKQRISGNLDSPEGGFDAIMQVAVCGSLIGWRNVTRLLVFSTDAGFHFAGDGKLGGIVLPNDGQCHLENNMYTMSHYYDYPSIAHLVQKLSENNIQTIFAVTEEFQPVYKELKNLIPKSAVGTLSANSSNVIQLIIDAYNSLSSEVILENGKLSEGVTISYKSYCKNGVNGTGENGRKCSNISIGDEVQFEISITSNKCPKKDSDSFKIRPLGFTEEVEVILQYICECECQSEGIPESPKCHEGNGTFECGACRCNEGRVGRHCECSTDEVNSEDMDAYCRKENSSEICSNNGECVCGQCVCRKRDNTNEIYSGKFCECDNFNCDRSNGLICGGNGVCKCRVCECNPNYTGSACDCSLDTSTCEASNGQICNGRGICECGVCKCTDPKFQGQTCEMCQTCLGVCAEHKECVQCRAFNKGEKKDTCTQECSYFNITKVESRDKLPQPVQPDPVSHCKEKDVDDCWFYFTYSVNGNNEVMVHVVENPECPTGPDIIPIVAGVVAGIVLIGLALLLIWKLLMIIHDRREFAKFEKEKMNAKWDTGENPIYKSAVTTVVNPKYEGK
Sequence of Integrin alpha1/beta1 complex (P56199 whole entry): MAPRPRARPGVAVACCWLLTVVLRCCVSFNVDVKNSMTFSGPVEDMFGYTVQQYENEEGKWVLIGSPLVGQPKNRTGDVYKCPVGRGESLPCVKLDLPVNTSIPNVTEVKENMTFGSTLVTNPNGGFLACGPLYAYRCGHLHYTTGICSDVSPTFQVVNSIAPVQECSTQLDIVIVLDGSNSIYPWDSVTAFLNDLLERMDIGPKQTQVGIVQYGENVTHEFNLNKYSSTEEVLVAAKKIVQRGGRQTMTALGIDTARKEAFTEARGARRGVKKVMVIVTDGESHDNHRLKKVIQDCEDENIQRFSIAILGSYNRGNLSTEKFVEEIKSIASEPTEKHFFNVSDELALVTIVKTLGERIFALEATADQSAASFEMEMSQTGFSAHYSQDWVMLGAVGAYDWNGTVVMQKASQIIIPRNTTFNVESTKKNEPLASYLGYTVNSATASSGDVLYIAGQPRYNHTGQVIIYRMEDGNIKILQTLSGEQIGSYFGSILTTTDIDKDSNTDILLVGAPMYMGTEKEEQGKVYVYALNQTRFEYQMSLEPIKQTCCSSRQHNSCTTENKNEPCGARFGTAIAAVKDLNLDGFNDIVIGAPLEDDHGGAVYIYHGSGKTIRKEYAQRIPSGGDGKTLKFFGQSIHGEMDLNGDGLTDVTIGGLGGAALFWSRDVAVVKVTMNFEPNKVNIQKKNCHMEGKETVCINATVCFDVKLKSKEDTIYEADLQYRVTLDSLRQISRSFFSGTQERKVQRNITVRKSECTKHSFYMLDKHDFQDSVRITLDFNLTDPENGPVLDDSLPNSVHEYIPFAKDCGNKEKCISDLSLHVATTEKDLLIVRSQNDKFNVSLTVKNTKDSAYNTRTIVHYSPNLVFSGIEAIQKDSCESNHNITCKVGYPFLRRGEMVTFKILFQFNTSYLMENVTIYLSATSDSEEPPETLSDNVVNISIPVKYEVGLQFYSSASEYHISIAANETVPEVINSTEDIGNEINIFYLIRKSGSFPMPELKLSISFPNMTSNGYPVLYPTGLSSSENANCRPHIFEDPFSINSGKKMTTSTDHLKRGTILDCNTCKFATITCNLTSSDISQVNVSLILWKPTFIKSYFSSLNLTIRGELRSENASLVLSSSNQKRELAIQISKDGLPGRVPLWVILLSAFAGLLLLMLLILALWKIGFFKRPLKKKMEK

Integrin alpha-5/beta-1 = Integrin alpha-5/beta-1 (Homo sapiens, UniProt P05556+P08648); assay: Antagonist activity at integrin alpha5beta1 receptor (unknown origin) assessed as inhibition of interaction with biotinylated collagen type-1 after 3 hrs by solid phase ELISA-type assay; assay type: protein-complex assay
[9] = Volume of distribution at steady state in Sprague-Dawley rat at 4.8 mg/kg, iv administered as bolus dose by LC-MS/MS analysis; assay type: ADME, organism-based; design: dose 4.8 mg/kg, route intravenous; settings: in vivo, read-out: Vdss
Plasma [10] = assay: Metabolic stability in rat plasma at 100 ng/mL measured after 4 hrs; assay type: ADME, cell-free
[11] = Initial plasma concentration in Sprague-Dawley rat at 4.8 mg/kg, iv administered as bolus dose by LC-MS/MS analysis; assay type: ADME, organism-based; design: dose 4.8 mg/kg, route intravenous
Plasma [12] = assay: Metabolic stability in mouse plasma at 100 ng/mL measured after 4 hrs; assay type: ADME, cell-free
Plasma [13] = assay: Metabolic stability in human plasma at 100 ng/mL measured after 4 hrs; assay type: ADME, cell-free
[14] = Half life in Sprague-Dawley rat at 4.8 mg/kg, iv administered as bolus dose by LC-MS/MS analysis; assay type: ADME, organism-based; design: dose 4.8 mg/kg, route intravenous; settings: in vivo
[15] = Drug excretion in Sprague-Dawley rat bile at 5 mg/kg, iv administered as bolus dose measured after 2 hrs by LC-MS/MS analysis; assay type: ADME, organism-based; design: dose 5 mg/kg, route intravenous; settings: read-out: Drug excretion
[16] = Drug excretion in Sprague-Dawley rat urine at 4.8 mg/kg, iv administered as bolus dose measured after 24 hrs by LC-MS/MS analysis; assay type: ADME, organism-based; design: dose 4.8 mg/kg, route intravenous; settings: read-out: Drug excretion
[17] = Plasma concentration in Sprague-Dawley rat at 4.8 mg/kg, iv administered as bolus dose measured after 1 hr by LC-MS/MS analysis; assay type: ADME, organism-based; design: dose 4.8 mg/kg, route intravenous
[18] = Solubility of the compound at pH 7.4 at 25 degC; assay type: physicochemical; settings: buffer
Cytochrome P450 1A1 = molecular target: T3, Cytochrome P450 1A1 (Homo sapiens, UniProt P04798); assay: Induction of CYP1A1 activity (unknown origin) relative to control; assay type: ADME
T3 sequence (P04798 whole entry): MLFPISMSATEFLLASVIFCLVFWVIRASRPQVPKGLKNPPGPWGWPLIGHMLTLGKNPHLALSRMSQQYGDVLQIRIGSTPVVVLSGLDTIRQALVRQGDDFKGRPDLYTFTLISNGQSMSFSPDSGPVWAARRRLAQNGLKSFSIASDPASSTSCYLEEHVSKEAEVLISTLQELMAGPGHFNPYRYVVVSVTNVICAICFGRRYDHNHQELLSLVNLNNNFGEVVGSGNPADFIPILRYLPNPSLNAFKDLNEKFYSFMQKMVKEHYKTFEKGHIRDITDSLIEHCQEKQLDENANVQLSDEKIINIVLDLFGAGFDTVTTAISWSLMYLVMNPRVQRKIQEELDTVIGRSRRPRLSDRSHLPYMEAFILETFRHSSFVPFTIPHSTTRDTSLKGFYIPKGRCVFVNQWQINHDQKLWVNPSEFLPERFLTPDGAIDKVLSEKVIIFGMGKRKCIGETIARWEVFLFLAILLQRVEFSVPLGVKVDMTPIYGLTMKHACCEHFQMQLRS

[19] = Lipophilicity, log D of the compound at pH 7.4 at 25 degC; assay type: physicochemical; settings: buffer

Sequence of Integrin alpha2/beta1 (P05556 whole entry): as the sequence (P05556 whole entry) above
Sequence of Integrin alpha2/beta1 (P17301 whole entry): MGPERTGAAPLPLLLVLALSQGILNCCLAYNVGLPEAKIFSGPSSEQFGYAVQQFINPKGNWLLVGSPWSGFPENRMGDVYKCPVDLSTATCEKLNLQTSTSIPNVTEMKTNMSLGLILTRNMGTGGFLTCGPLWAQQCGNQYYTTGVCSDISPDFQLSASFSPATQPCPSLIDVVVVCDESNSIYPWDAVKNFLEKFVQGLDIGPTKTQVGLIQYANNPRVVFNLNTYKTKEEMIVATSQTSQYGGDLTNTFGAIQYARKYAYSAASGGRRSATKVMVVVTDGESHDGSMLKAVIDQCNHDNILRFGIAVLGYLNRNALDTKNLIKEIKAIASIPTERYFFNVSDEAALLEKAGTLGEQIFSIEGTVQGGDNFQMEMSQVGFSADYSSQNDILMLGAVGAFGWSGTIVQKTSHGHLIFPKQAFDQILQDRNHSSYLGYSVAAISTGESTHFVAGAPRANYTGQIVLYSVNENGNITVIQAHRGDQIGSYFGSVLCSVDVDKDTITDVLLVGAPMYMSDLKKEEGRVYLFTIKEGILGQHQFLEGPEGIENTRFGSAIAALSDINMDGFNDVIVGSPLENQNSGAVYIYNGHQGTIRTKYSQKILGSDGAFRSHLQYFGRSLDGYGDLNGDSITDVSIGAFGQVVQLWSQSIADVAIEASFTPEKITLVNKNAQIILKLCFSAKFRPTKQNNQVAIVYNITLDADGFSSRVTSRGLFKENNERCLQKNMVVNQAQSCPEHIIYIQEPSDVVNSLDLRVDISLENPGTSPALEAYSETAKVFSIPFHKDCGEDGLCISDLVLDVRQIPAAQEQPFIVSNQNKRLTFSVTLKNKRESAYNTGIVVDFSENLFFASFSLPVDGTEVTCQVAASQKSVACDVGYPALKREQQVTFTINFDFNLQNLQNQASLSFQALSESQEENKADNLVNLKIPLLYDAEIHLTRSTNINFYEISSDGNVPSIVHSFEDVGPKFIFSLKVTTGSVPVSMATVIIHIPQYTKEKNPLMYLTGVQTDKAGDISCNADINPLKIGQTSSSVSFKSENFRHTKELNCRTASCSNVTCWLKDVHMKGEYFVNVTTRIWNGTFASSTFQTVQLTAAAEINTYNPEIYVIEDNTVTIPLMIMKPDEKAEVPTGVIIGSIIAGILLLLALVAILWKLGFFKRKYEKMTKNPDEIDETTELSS

## O=C1N[C@H](C(=O)O)Cc2cn(cn2)CCCCOc2ccc(Cl)c1c2
Integrin alpha2/beta1
  IC50: 366 nM

## O=C1N[C@H](C(=O)O)Cc2ccc(cc2)OCCCCOc2cccc(Cl)c21
Integrin alpha2/beta1
  IC50: 106 nM

## O=C1N[C@H](C(=O)O)Cc2cccc(c2)OC/C=C/COc2cc(C(F)(F)F)c1cn2
Integrin alpha2/beta1
  IC50: 1900 nM

## O=C1NC(C(=O)O)CCc2cn(cn2)C/C=C/COc2ccc(Cl)c1c2 (racemic)
Integrin alpha2/beta1
  IC50: > 5000 nM

## O=C1N[C@H](C(=O)O)Cc2cccc(c2)OCCCCOc2cccc(F)c21
Integrin alpha2/beta1
  IC50: > 1000 nM

## O=C1N[C@H](C(=O)O)Cc2cn(cn2)C/C=C/Cc2ccc(Cl)c1c2
Integrin alpha2/beta1
  IC50: 176 nM

## O=C1N[C@H](C(=O)O)Cc2cccc(c2)OC/C=C/COc2ccc1c(F)c2
Integrin alpha2/beta1
  IC50: > 1000 nM

## O=C1N[C@H](C(=O)O)Cc2cccc(c2)OCCCCOc2ccc1c(Cl)c2
Integrin alpha2/beta1
  IC50: 114 nM

## O=C1NC(C(=O)O)CCc2cn(cn2)CCCCOc2ccc(Cl)c1c2 (racemic)
Integrin alpha2/beta1
  IC50: > 5000 nM

## O=C1N[C@H](C(=O)O)Cc2ccc(cc2)OC/C=C/COc2cccc(Cl)c21
Integrin alpha2/beta1
  IC50: 178 nM

## O=C1N[C@H](C(=O)O)Cc2cn(nn2)C/C=C/COc2ccc(Cl)c1c2
Integrin alpha2/beta1
  IC50: 34 nM

## O=C1N[C@H](C(=O)O)Cc2cn(nn2)CCCCOc2ccc(Cl)c1c2
Integrin alpha2/beta1
  IC50: 497 nM

## O=C1N[C@@H](C(=O)O)Cc2cn(cn2)C/C=C/COc2ccc(Cl)c1c2
Integrin alpha2/beta1
  IC50: 909 nM

## Cc1cccc(Cl)c1C(=O)N[C@@H](Cc1ccc(NC(=O)c2c(Cl)cccc2Cl)cc1)C(=O)O
Integrin alpha2/beta1
  IC50: 214 nM

## O=C1N[C@H](C(=O)O)Cc2cccc(n2)NC/C=C/COc2ccc(Cl)c1c2
Integrin alpha2/beta1
  IC50: > 1000 nM

## COC(=O)[C@@H]1Cc2cn(cn2)C/C=C/COc2ccc(Cl)c(c2)C(=O)N1
[1]
  Papp: > 2 ×10⁻⁶ cm/s

## O=C1N[C@H](C(=O)O)Cc2ncn(c2Cl)C/C=C/COc2ccc(Cl)c1c2
Integrin alpha2/beta1
  IC50: > 4000 nM

## O=C1N[C@H](C(=O)O)Cc2cccc(c2)OC/C=C/COc2ccc1c(Cl)c2
Integrin alpha2/beta1
  IC50: 163 nM

## O=C1N[C@@H](C(=O)O)Cc2cn(cn2)CCCCOc2ccc(Cl)c1c2
Integrin alpha2/beta1
  IC50: > 4000 nM

## O=C1N[C@H](C(=O)O)Cc2cn(cn2)CCCCCOc2ccc(Cl)c1c2
Integrin alpha2/beta1
  IC50: 731 nM

## O=C1N[C@H](C(=O)O)Cc2cn(cn2)C/C=C/COc2ccc(Cl)c1c2Cl
Integrin alpha2/beta1
  IC50: 869 nM

## O=C1N[C@H](C(=O)O)Cc2cccc(c2)OC/C=C/COc2ccc([N+](=O)[O-])c1c2
Integrin alpha2/beta1
  IC50: 667 nM

## O=C1N[C@H](C(=O)O)Cc2cccc(c2)OCCCCOc2cccc(Cl)c21
Integrin alpha2/beta1
  IC50: 978 nM

## Cl.O=C1N[C@H](C(=O)O)Cc2cn(cn2)C/C=C/COc2ccc(Cl)c1c2
[2]
  metabolised at 20 min, 5 µM: 0%
[1]
  Papp: 0.1 ×10⁻⁶ cm/s
[3]
  metabolised at 20 min, 5 µM: 3%
Cytochrome P450 1A2
  Activity: < 10%
Integrin alpha2/beta1
  IC50: 4 nM
Cytochrome P450 3A4 [4]
  IC50: > 30000 nM
Cytochrome P450 3A4 [5]
  Activity: < 10%
[6]
  IC50: > 10000 nM
[7]
  metabolised at 20 min, 5 µM: 0%
[8]
  IC50: 33 nM
Integrin alpha-5/beta-1
  IC50: 74 nM
[9]
  Vd: 3.6 L/kg
Plasma [10]
  Stability: Stable
[11]
  C0: 1700 ng/mL
Plasma [12]
  Stability: Stable
Plasma [13]
  Stability: Stable
[14]
  half-life: 14.4 min
[15]
  dose excreted at 2 h: 50%
[16]
  dose excreted at 24 h: 24%
[17]
  concentration at 1 h: < 10 ng/mL
[18]
  solubility: 1540 µg/mL
Cytochrome P450 1A1
  Activity: < 10%
[19]
  logD: 0.05

## O=C1N[C@H](C(=O)O)Cn2cc(nn2)CCCCOc2ccc(Cl)c1c2
Integrin alpha2/beta1
  IC50: 1300 nM

## Cc1ccc2cc1C(=O)N[C@H](C(=O)O)Cc1cccc(c1)OC/C=C/CO2
Integrin alpha2/beta1
  IC50: 1050 nM

## O=C1N[C@H](C(=O)O)Cc2cn(cn2)CC/C=C/COc2ccc(Cl)c1c2 (mixture of isomers)
Integrin alpha2/beta1
  IC50: 270 nM

## O=C1N[C@H](C(=O)O)Cn2cc(nn2)C/C=C/COc2ccc(Cl)c1c2 (mixture of isomers)
Integrin alpha2/beta1
  IC50: 38 nM

## O=C1N[C@H](C(=O)O)Cc2cn(c3ccccc23)C/C=C/COc2ccc(Cl)c1c2
Integrin alpha2/beta1
  IC50: 12 nM

## O=C1N[C@H](C(=O)O)Cc2cccc(n2)NCCCCOc2ccc(Cl)c1c2
Integrin alpha2/beta1
  IC50: > 1000 nM

## O=C1N[C@H](C(=O)O)Cc2cccc(c2)OC/C=C/COc2ccc(Cl)c1c2
Integrin alpha2/beta1
  IC50: 233 nM

## O=C1N[C@H](C(=O)O)Cc2ccc(nc2)OC/C=C/COc2ccc(Cl)c1c2
Integrin alpha2/beta1
  IC50: 134 nM

## O=C1N[C@H](C(=O)O)Cc2cccc(c2)OC/C=C/COc2cccc(F)c21
Integrin alpha2/beta1
  IC50: > 1000 nM

## COc1cccc2c1C(=O)N[C@H](C(=O)O)Cc1cccc(c1)OCCCCO2
Integrin alpha2/beta1
  IC50: > 4000 nM

## O=C1NC(C(=O)O)Cc2ccccc2OCCCCOc2ccc(Cl)c1c2 (racemic)
Integrin alpha2/beta1
  IC50: > 4000 nM

## CCOC(=O)[C@@H]1Cc2cn(cn2)C/C=C/COc2ccc(Cl)c(c2)C(=O)N1
[1]
  Papp: > 2 ×10⁻⁶ cm/s

## O=C1N[C@H](C(=O)O)Cc2ccc(cc2)OCCCCOc2ccc(Cl)c1c2
Integrin alpha2/beta1
  IC50: 731 nM

## O=C1N[C@H](C(=O)O)Cc2cn(cn2)C/C=C/COc2ccc(Cl)c1n2
Integrin alpha2/beta1
  IC50: 36 nM

## O=C1N[C@H](C(=O)O)Cc2cccc(c2)OCCCCOc2cccc1c2
Integrin alpha2/beta1
  IC50: > 10000 nM

## Cc1ccc2cc1C(=O)N[C@H](C(=O)O)Cc1cccc(c1)OCCCCO2
Integrin alpha2/beta1
  IC50: 745 nM

## O=C1N[C@H](C(=O)O)Cc2cn(cn2)C/C=C/COc2ccc1c(Cl)c2 (mixture of isomers)
Integrin alpha2/beta1
  IC50: 470 nM

## O=C1N[C@H](C(=O)O)Cc2cccc(c2)OCCCCOc2ccc1c(F)c2
Integrin alpha2/beta1
  IC50: > 4000 nM

## O=C1N[C@H](C(=O)O)Cc2cccc(c2)OCCCCOc2ccc(Cl)c1c2
Integrin alpha2/beta1
  IC50: 142 nM

## O=C1N[C@H](C(=O)O)Cc2ccc(nc2)OCCCCOc2ccc(Cl)c1c2
Integrin alpha2/beta1
  IC50: 792 nM

## O=C1N[C@H](C(=O)O)Cc2ccc(cc2)OC/C=C/COc2ccc(Cl)c1c2
Integrin alpha2/beta1
  IC50: 101 nM

## O=C1N[C@H](C(=O)O)Cc2cccc(c2)OC/C=C/COc2cccc(Cl)c21
Integrin alpha2/beta1
  IC50: 588 nM
